Data: patent US20250360134A1, “6-6 OR 5-6 FUSED BICYCLIC COMPOUNDS COMPRISING A PYRI(MI)DINE RING USEFUL IN THE|TREATMENT OF INFECTIOUS DISEASES” (INSTITUT NATIONAL DE LA SANTE ET DE LA RECHERCHE MEDICALE …, priority 2020, published 2025)
Structures can show the parent of a compound that is named as a salt. Where two headings read alike, the source gives them in different places.

How the values were obtained:
[1] = Cytotoxicity evaluation, MTT; assay type: cell-based, human; conditions: HepG2 cells (hepatocarcinoma-derived, ATCC HB-8065); human HepG2 cells, 72 hours, MTT
Experimental: The aim of this assay was to evaluate the impact of metabolic activation of the tested compounds on cell viability.
A cytotoxicity evaluation was performed using the method reported in Emami S A et al., Iran J Basic Med Sci 2012; 15:807-11 to determine the cytotoxic concentrations 50% (CC50) and using doxorubicin as a cytotoxic reference compound. These assays were performed in human HepG2 cells. HepG2 cells were purchased from ATCC (ref HB-8065). These cells are a commonly used human hepatocarcinoma-derived cell line that has characteristics similar to those of primary hepatocytes. These cells express many hepatocyte-specific metabolic enzymes, thus enabling the cytotoxicity of tested product metabolites to be evaluated. Briefly, cells in 100 μl of complete RPMI medium [RPMI supplemented with 10% FCS, 1% 1-glutamine (200 mM), penicillin (100 U/ml), and streptomycin (100 μg/ml)] were inoculated into each well of 96-well plates and incubated at 37° C. in a humidified chamber in 6% CO2. After 24 hours, 100 μl of medium with test compound at various concentrations dissolved in DMSO (final concentration less than 0.5% v/v) was added, and the plates were incubated for 72 hours at 37° C. Duplicate assays were performed for each sample. Each well was microscopically examined for precipitate formation before the medium was aspirated from the wells. After aspiration, 100 μl of MTT solution (0.5 mg/ml in medium without FCS) were then added to each well. Cells were incubated for 2 hours at 37° C. MTT solution was removed, and DMSO (100 μl) was added to dissolve the resulting blue formazan crystals. Plates were shaken vigorously (300 rpm) for 5 min. The absorbance was measured at 570 nm with 630 nm as reference wavelength in a BIO-TEK ELx808 Absorbance Microplate Reader. DMSO was used as blank and doxorubicin (Sigma-Aldrich) as positive control. Cell viability was calculated as percentage of control (cells incubated without compound).

[2] = tested on: T. brucei brucei AnTat 1.9; test: In vitro antitrypanosomal activity, Alamar Blue assay; assay type: cell-based, Trypanosoma brucei brucei; conditions: Trypanosoma brucei, read-out: IC50 T. brucei brucei
Experimental: The effects of the tested compounds on the growth of T. brucei brucei were assessed using an Alamar Blue® assay described in B. Raz et al., Acta Trop. 1997, 68, 139. T. brucei brucei AnTat 1.9 (IMTA, Antwerpen, Belgium) was cultured in MEM with Earle's salts, supplemented according to the protocol disclosed in T. Baltz et al., EMBO J. 1985, 4, 1273, with the following modifications: 0.5 mM mercaptoethanol (Sigma-Aldrich), 1.5 mM 1-cysteine (Sigma-Aldrich), 0.05 mM bathocuproine sulfate (Sigma-Aldrich), and 20% heat-inactivated horse serum (Gibco, France) at 37° C. and 5% CO2. Samples were incubated at an average density of 2000 parasites/well in sterile 96-well plates (Fisher, France) with various concentrations of compounds dissolved in 0.9% NaCl. All doses were tested in duplicate. Appropriate controls treated with solvents 0.9% NaCl or DMSO or with suramin, pentamidine, eflornithine, and fexinidazole (reference drugs purchased from Sigma-Aldrich and Fluorochem, UK) were added to each set of experiments. After a 69-hour incubation at 37° C., 10 μl of the viability marker Alamar Blue (Fisher) was added to each well, and the plates were incubated for 5 hour. The plates were read in a PerkinElmer ENSPIRE (Germany) microplate reader using an excitation wavelength of 530 nm and an emission wavelength of 590 nm. The IC50 was defined as the concentration of drug necessary to inhibit by 50% the activity of T. brucei brucei compared to the control. IC50 values were calculated using a non-linear regression analysis of dose-response curves performed using GraphPad Prism software (USA). IC50 values were calculated from three independent experiments.

[3] = tested on: human telomeric sequence F21T; test: FRET-melting, F21T; conditions: K+ condition, 2 μM compound, 0.2 μM oligonucleotide
[4] = tested on: human duplex sequence FdxT; test: FRET-melting, FdxT; conditions: duplex control, K+ condition, 2 μM compound, 0.2 μM oligonucleotide
[5] = tested on: Plasmodium telomeric sequence FPf1T; test: FRET-melting, FPf1T; conditions: K+ condition, 2 μM compound, 0.2 μM oligonucleotide
[6] = tested on: Plasmodium telomeric sequence FPf8T; test: FRET-melting, FPf8T; conditions: K+ condition, 2 μM compound, 0.2 μM oligonucleotide
[7] = tested on: Trypanosoma 9 and 11 chromosomic sequence FTrypBT; test: FRET-melting, FTrypBT; conditions: K+ condition, 2 μM compound, 0.2 μM oligonucleotide
Plasmodium falciparum W2 = test: In vitro antiplasmodial activity, SYBR Green I, strain W2; conditions: Plasmodium falciparum, W2, 48 h, read-out: IC50 Plasmodium falciparum W2, chloroquine-resistant strain W2, 48-hour incubation
Experimental: (§1) The in vitro antiplasmodial activities were tested over concentrations ranging from 39 to 40 μm against culture-adapted Plasmodium falciparum: reference strains 3D7 and W2. […] The parasites were cultivated in RPMI medium (Sigma-Aldrich, Lyon, France) supplemented with 0.5% Albumax I (Life Technologies Corporation, Paisley, UK), hypoxanthine (Sigma-Aldrich), and gentamicin (Sigma-Aldrich) with human erythrocytes and were incubated at 37° C. in a candle jar, as described in Desjardins R E et al., Antimicrob Agents Chemother, 1979; 16:710-18.
(§2) The P. falciparum drug susceptibility test was carried out in 96-well flat bottom sterile plates in a final volume of 250 μL. After a 48-hour incubation with the drugs, quantities of DNA in treated and control cultures of parasites in human erythrocytes were quantified using the SYBR Green I (Sigma-Aldrich) fluorescence-based method as described in Bennett T N et al, Antimicrob Agents Chemother, 2004; 48:1807-10. Briefly, after incubation, plates were frozen at −20° C. until use. Plates were then thawed for 2 hours at room temperature, and 100 μL of each homogenized culture was transferred to a well of a 96-well flat bottom sterile black plate (Nunc, Inc., Rochester, NY) that contained 100 μL of the SYBR Green I lysis buffer (2×SYBR Green, 20 mM Tris base pH 7.5, 5 mM EDTA, 0.008% w/v saponin, 0.08% w/v Triton X-100). […] Plates were incubated for 1 hour at room temperature and then read on a fluorescence plate reader (Tecan, Grödig, Austria) using excitation and emission wavelengths of 485 and 535 nm, respectively. Concentrations inhibiting 50% of the parasite's growth (half maximal inhibitory concentration or IC50 values) were then calculated from the obtained experimental results by non-linear regression analysis of data from dose-response curves, using TableCurve 2D version 5.0 software (Systat Software, San Jose, CA). IC50 values are reported as means calculated from three independent experiments, as described in H. Kaddouri et al., Antimicrob.

[8] = tested on: Plasmodium falciparum 3D7; test: In vitro antiplasmodial activity, SYBR Green I, strain 3D7; conditions: Plasmodium falciparum, 3D7, 48 h, read-out: IC50 Plasmodium falciparum 3D7, chloroquine-sensitive strain 3D7, 48-hour incubation
Experimental: as §1, §2

[9] = 69-hour incubation, Alamar Blue

| SMILES | IC50 at 72 h [1] | IC50 ([2]; 69 h) | FRET-melting values in K+ conditions at 2 μM ΔTm F21T [3] | FRET-melting values in K+ conditions at 2 μM ΔTm FdxT [4] | FRET-melting values in K+ conditions at 2 μM ΔTm FPf1T [5] | FRET-melting values in K+ conditions at 2 μM ΔTm FPf8T [6] | FRET-melting values in K+ conditions at 2 μM ΔTm FtryBT [7] | IC50 (Plasmodium falciparum W2) | IC50 [8] | IC50 [2, 9] |
| --- | --- | --- | --- | --- | --- | --- | --- | --- | --- | --- |
| CN1CCN(CCCNCc2ccc(-c3nc(-c4ccc(CNCCCN5CCN(C)CC5)cc4)c4ccn(-c5ccccc5)c4n3)cc2)CC1 [Compound 2B, 2,4-bis{4-[(3-(4-methylpiperazin-1-yl)propyl)aminomethyl]phenyl}-7-phenyl-7H-pyrrolo[2,3-d]pyrimidine oxalate] | 1.08 µM | 0.88 ± 0.07 µM | 19.6 °C | 0.7 °C | 19.1 °C | 20.0 °C | 17.3 °C | 1.01 ± 0.16 µM | – | – |
| CN(C)CCCNCc1ccc(-c2nc(-c3ccc(CNCCCN(C)C)s3)c3ccn(-c4ccccc4)c3n2)cc1 [Compound 6B, 2-{4-[(3-Dimethylaminopropyl)aminomethyl]phenyl}-4-{5-[(3-dimethylaminopropyl)aminomethyl]thien-2-yl}-7-phenyl-7H-pyrrolo[2,3-d]pyrimidine oxalate] | 1.74 µM | 0.14 ± 0.02 µM | 25.5 °C | 1.7 °C | 26.3 °C | 26.6 °C | 23.1 °C | 0.75 ± 0.16 µM | 1.21 ± 0.18 µM | – |
| CN(C)CCCNCc1ccc(-c2nc(-c3ccc(CNCCCN(C)C)s3)nc3c2ccn3-c2ccccc2)cc1 [Compound 7B, 4-{4-[(3-Dimethylaminopropyl)aminomethyl]phenyl}-2-{5-[(3-dimethylaminopropyl)aminomethyl]thien-2-yl}-7-phenyl-7H-pyrrolo[2,3-d]pyrimidine oxalate] | 1.91 µM | 0.63 ± 0.07 µM | 13.8 °C | −0.3 °C | 11.5 °C | 12.8 °C | 10.5 °C | 2.39 ± 0.08 µM | 0.88 ± 0.24 µM | – |
| CN(C)CCCNCc1ccc(-c2nc(-c3ccc(CNCCCN(C)C)cc3)c3ccn(C)c3n2)cc1 [Compound 8B, 2,4-bis{4-[(3-dimethylaminopropyl)aminomethyl]phenyl}-7-methyl-7H-pyrrolo[2,3-d]pyrimidine oxalate] | 16.4 µM | 0.55 ± 0.05 µM | 10.9 °C | −0.2 °C | 10.3 °C | 10.6 °C | 9.4 °C | 4.46 ± 0.6 µM | 1.95 ± 0.69 µM | – |
| CN1CCN(CCCNCc2ccc(-c3nc(-c4ccc(CNCCCN5CCN(C)CC5)cc4)c4ccn(C)c4n3)cc2)CC1 [Compound 9B, 2,4-bis{4-[(3-(4-methylpiperazin-1-yl)propyl)aminomethyl]phenyl}-7-methyl-7H-pyrrolo[2,3-d]pyrimidine oxalate] | 39.5 µM | 1 ± 0.1 µM | 10.4 °C | 0.0 °C | 10.1 °C | 10.1 °C | 8.4 °C | 0.13 ± 0.05 µM | 17.8 ± 3.49 µM | – |
| CN(C)CCCNCc1ccc(-c2nc(Cl)nc3[nH]ccc23)cc1 [Compound 15B, 2-Chloro-4-{4-[(3-dimethylaminopropyl)aminomethyl]phenyl}-7H-pyrrolo[2,3-d]pyrimidine oxalate] | 23.7 µM | 0.51 ± 0.07 µM | 0.3 °C | 0.1 °C | – | – | – | 15.2 ± 2.08 µM | 10.3 ± 0.22 µM | – |
| CN1CCN(CCCNCc2ccc(-c3nc(Cl)nc4[nH]ccc34)cc2)CC1 [Compound 16B, 2-Chloro-4-{4-[(3-(4-methylpiperazin-1-yl)propyl)aminomethyl]phenyl}-7H-pyrrolo[2,3-d]pyrimidine oxalate] | 63.5 µM | 1.34 ± 0.25 µM | 0.8 °C | 0.1 °C | – | – | – | 25.9 ± 4.63 µM | 10.5 ± 0.23 µM | – |
| CN(C)CCCNCc1ccc(-c2nc(Cl)nc3c2ccn3-c2ccccc2)cc1 [Compound 17B, 2-Chloro-4-{4-[(3-dimethylaminopropyl)aminomethyl]phenyl}-7-phenyl-7H-pyrrolo[2,3-d]pyrimidine oxalate] | 2.87 µM | 0.02 µM | – | −0.2 °C | – | – | – | 0.29 ± 0.04 µM | 1.01 ± 0.41 µM | – |
| CN(C)CCCNCc1ccc(-c2nc(Cl)nc3c2ccn3-c2ccccc2)s1 [Compound 19B, 2-Chloro-4-{5-[(3-dimethylaminopropyl)aminomethyl]thien-2-yl}-7-phenyl-7H-pyrrolo[2,3-d]pyrimidine oxalate] | 1.88 µM | 0.05 ± 0.01 µM | 6.2 °C | −1.8 °C | – | – | – | 4.56 ± 0.56 µM | 1.97 ± 0.36 µM | – |
| CN(C)CCCNCc1ccc(-c2nc(-c3ccc(CNCCCN(C)C)cc3)c3ccsc3n2)cc1 [Compound 26B, 2,4-Bis{4-[(4-dimethylaminopropyl)aminomethyl]phenyl}thieno[2,3-d]pyrimidine oxalate] | 2.79 µM | – | 14.1 °C | 0.3 °C | 11.2 °C | 13.2 °C | 8.6 °C | 9.95 ± 1.47 µM | 4.46 ± 0.35 µM | 0.46 ± 0.04 µM |
| CN(C)CCCNCc1ccc(-c2nc(NCCCN(C)C)nc3sccc23)cc1 [Compound 28B, 2-(3-Dimethylaminopropylamino)-4-{4-[(4-dimethylaminopropyl)aminomethyl]phenyl}thieno[2,3-d]pyrimidine oxalate] | 35.2 µM | – | 2.41 °C | −0.77 °C | – | – | – | 11.5 ± 2.47 µM | 0.03 µM | 1.1 ± 0.26 µM |
